The subject of one data set is SU-DHL-10. The data set is described as follows: In vitro tumor cell proliferation (CellTiter-Glo), SU-DHL-10. As to conditions: Homo sapiens, SU-DHL10; SU-DHL-10, 72 h; read-out: Growth IC50. Type of data set: cell-based. The method, then:
Biological Embodiment 8: Study on Effects of Active Compounds for Inhibiting In Vitro Tumor Cell Proliferation
Promega CellTiter-Glo cell activity detection kit by luminescence (Promega-G7573).
Tumor cell lines were cultured in a 5% of CO2 incubator at 37° C. according to respective culture conditions; and periodic passage was performed, and cells positioned in a logarithmic phase were taken for planking.
3) 90 μL of cell suspension was added into each well of the culture plate, and a culture solution containing no cell was added into blank control;
4) the culture plate was cultured overnight in the 5% of CO2 incubator having relative humidity of 100% at 37° C.
Preparation of a 400× compound storage plate: the compound was diluted from the maximum concentration gradient to the lowest concentration with DMSO. […]
The following steps were performed according to the specification of the Promega CellTiter-Glo cell activity detection kit by luminescence (Promega-G7573). […]
9) the luminescence signal was detected on the 2104 EnVision plate reader.
In general terms: Cellular ATP, detected with luciferase, serves as a proxy for viable cell number.

The target in another data set is LynA (Homo sapiens, UniProt P07948). Description: Btk selectivity over LynA (same kinase method, Btk replaced). The following applies: ratio of IC50 values. Format: biochemical. The method, then:
Other kinases (e.g., inhibitory activity of Lck and LynA is determined by replacing the Btk with various kinases and performing operations the same as that in the above method).

For a further data set, the system named is SD rats. The data set is described as follows: Single dose toxicity test in SD rats. Format: in vivo. The procedure: Biological Embodiment 6: Single Dose Toxicity Test
During the experiment, all the animals were subjected to detailed clinical observation once (2 hours after drug administration) on the Day 1 and once every day on Day 2-14; the animals were weighed on the day of animal grouping, on the day of drug administration (before drug administration), Day 4, 7, 10 and 13 after drug administration and on the day of dissection, and weights were recorded; food consumption per cage was weighed within 24 hours on Day 2, 6, 9 and 13 in the experiment and recorded; and all live animals were subjected to gross anatomy examination on Day 15.
1. Preparation of Test and Control Products
a solvent control group: 30 ml of solvents (0.5% MC (methylcellulose), 0.4% of cremophor EL and 0.1% of sodium lauryl sulfate) were sucked into a suitable container, the pH value was measured as 7, and a colorless clarified solution was obtained.
Compound 6 (400 mg/kg): 1507.1 mg of the compound 6 was weighed into a suitable container, solvents (0.5% MC (methylcellulose), 0.4% cremophor EL and 0.1% sodium lauryl sulfate) were added into the container to reach a constant volume of 30 ml, ultrasonic treatment was performed for 20 minutes, stirring was performed for 15 minutes, a mixing instrument was used for 5 minutes, the pH value was measured as 7, and white suspension was obtained.
Compound 6 (1000 mg/kg): 3765.5 mg of the compound 6 was weighed into a suitable container, solvents (0.5% MC (methylcellulose), 0.4% cremophor EL and 0.1% sodium lauryl sulfate) were added into the container to reach a constant volume of 30 ml, ultrasonic treatment was performed for 25 minutes, stirring was performed for 21 minutes, a mixing instrument was used for 5 minutes, the pH value was measured as 7, and white suspension was obtained. […]

Data set [1] is described as follows: Human liver microsome stability test. Format: in vitro ADME. The procedure:
Preparation of Buffer Solution:
1. 100 mM potassium phosphate buffer solution, pH of 7.4
Preparation of Test Compound Solution:
1. A test compound solution (10 mM, 5 μL) was diluted with a methanol solution (495 μL), and a 100 μM solution was prepared;
2. Preparation of a working solution: the above solution (50 μL) was diluted with the potassium phosphate buffer solution (450 μL, 100 mM) so as to obtain diluents (10 μM).
NADPH Regeneration System (Final Concentration 1 Unit/mL of Isocitrate Dehydrogenase):
1. beta-NADP, supplier: sigma Cat. No. N0505
3. isocitrate dehydrogenase, supplier: sigma Cat. No. 12002
Cold acetonitrile containing 100 ng/mL of tolbutamide and 100 ng/mL of labetalol serves as an internal standard
1. a 10 μL/well of working solution was added into plates (T0, T5, T10, T20, T30, T60, NCF60) beyond the blank;
2. a 80 μL/well of microsome solution was added, and incubation was performed at 37° C. for 10 min;
3. a 10 μL of 100 mM phosphate buffer solution was added into each well of an NCF60 plate, the plate was placed in a warm bath at 37° C., and timing started;
4. a 10 μL/well of NADPH regeneration system was added after preheating, and a reaction started;
5. incubation was performed at 37° C., and timing started
6. a 300 μL/well of stop solution was added (4° C., containing 100 ng/mL of tolbutamide and 100 ng/mL of labetalol) to end the reaction;
7. the plate was shaken for 10 min;
8. centrifugation was performed at 4° C. at a rotation speed of 4000 rpm; and
9. sample LC/MS/MS detection was performed.
Data Analysis Use Equation of First Order Kinetics to Calculate t½ and Clint(Mic): […]
equation of first order kinetics: […]
In general terms: Liver microsomes are a subcellular fraction often used to study metabolism.

For the next data set, the target named is hERG channel (Homo sapiens, UniProt Q12809). The data set is described as follows: hERG current blocking test (whole-cell patch clamp). (In general: Block of hERG is tested as a sign of cardiac risk.)

SMILES strings stand for the structures. Some results are limits rather than exact numbers.

Sequence of LynA (P07948 whole entry): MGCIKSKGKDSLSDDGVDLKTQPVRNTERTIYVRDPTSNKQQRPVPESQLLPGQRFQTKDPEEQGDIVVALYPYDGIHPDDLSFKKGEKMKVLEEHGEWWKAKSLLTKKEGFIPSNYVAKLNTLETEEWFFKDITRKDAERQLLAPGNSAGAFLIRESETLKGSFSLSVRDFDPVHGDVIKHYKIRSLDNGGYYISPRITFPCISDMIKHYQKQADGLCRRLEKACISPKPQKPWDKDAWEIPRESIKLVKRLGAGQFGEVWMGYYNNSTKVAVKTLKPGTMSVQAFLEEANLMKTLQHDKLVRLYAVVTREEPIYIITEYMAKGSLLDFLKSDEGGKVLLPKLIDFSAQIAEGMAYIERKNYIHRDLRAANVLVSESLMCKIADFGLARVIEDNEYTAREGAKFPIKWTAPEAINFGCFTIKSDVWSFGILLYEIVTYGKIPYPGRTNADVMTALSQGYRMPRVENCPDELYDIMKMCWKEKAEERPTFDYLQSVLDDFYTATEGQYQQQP
Sequence of hERG channel (Q12809 whole entry): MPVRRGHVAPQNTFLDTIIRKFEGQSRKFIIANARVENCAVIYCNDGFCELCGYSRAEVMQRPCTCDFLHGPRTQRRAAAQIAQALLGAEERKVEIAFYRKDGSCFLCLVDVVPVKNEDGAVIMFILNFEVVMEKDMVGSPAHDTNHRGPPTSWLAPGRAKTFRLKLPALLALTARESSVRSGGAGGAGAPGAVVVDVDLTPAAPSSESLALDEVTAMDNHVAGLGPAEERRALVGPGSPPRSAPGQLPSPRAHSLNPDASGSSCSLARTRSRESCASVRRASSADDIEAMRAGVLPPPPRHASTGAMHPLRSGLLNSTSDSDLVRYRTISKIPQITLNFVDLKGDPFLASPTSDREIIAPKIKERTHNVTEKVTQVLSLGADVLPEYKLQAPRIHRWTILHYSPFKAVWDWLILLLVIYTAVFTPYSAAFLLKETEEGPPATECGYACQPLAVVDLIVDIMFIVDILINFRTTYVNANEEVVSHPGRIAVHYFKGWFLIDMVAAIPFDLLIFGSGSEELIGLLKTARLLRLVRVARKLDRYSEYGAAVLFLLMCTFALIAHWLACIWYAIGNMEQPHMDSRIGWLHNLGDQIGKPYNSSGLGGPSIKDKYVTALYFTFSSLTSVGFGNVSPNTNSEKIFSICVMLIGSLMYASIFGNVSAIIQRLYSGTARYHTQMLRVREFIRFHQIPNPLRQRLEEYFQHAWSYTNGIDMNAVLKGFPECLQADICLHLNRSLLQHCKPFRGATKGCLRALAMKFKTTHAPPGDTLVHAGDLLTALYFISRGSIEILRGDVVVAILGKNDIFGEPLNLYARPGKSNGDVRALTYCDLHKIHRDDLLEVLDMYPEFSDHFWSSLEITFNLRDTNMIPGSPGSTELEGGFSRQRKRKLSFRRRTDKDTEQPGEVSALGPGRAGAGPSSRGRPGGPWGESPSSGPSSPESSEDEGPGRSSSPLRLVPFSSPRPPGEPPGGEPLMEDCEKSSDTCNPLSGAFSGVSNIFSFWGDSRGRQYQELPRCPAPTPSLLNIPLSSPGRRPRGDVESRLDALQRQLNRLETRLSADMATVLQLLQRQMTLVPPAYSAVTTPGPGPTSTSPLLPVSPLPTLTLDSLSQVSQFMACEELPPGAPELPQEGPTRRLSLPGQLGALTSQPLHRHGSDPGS

Usually IC50 stands for the concentration needed to halve the response being measured. Broadly, the half-life is the time needed for the level to fall by half in the phase considered. A high value points to slow loss. Usually CLint scaled stands for the capacity of the preparation to metabolise the compound, expressed as a volume cleared per time. Higher therefore signals faster metabolism. Turning to `C=CC(=O)NN1CCCC(n2nc(-c3ccc(Oc4ccccc4)cc3)c3c(N)ncnc32)C1` (centres unmarked) [Embodiment 6, N-(3-(4-amino-3-(4-phenoxyphenyl)-1H-pyrazolo[3,4-D]pyrimidine-1-yl)-1-piperidyl)-acrylamide], the IC50 is above 10 µM in the data set with SU-DHL-10 and 8.06 µM at hERG channel. The “LynA[IC50]/Btk[IC50]” value at LynA was found to be 137. In the data set on SD rats (SD rats, oral, once, 0, 400, 1000, 2000 mg/kg), this molecule had a Maximum tolerance dosage of 2000 mg/kg. In addition, the Gross anatomy entry in the data set on SD rats (rat, in vivo) is given as “no abnormality”. In the data set on SD rats (rat, in vivo), the “Results (single dose toxicity)” value is reported as “No animal died; all tissues”. Besides, the “Remaining (*NCF = 60 min)” value in data set [1] (HLM 0.5, 60 min, no co-factor) turned out to be 105.9%. For the same molecule, in data set [1] (HLM 0.5, 60 min with NADPH regenerating system), the “Remaining (T = 60 min)” value is 0.2%. In data set [1] (human, liver microsomes, pH 7.4, HLM 0.5 (0.5 mg protein/mL)), this molecule displayed a half-life at 1 µM of 4.3 min. For the same molecule, the microsomal CLint at 1 µM in data set [1] (human, liver microsomes, pH 7.4, HLM 0.5, read-out: CLint(mic)) was 325 µL/min/mg. This molecule showed a CLint scaled at 1 µM in data set [1] (human, liver microsomes, pH 7.4, HLM 0.5, scaled from CLint(mic)) of 292 mL/min/kg.

The values above are taken from patent publication US11512085B2, “Heteroaryl compound having drug activity” (SHANGHAI DUDE MEDICAL TECHNOLOGY CO., LTD, priority 2017, dated 2022).
